Experimental data published in patent US20180178043A1, “FOCUSTED ULTRASOUND HYPERTHERMIA” (KING'S COLLEGE LONDON, priority 2015, published 2018).
“And” between values parts separate entries of the source, which are not always exact repeats. Identical values can stand only once.

Tests used:
[1] = Pharmacokinetics of topotecan in blood, quantification by HPLC; format: in vivo, Balb C Mice
Protocol: Balb C Mice were injected with IgFUS-TNPs encapsulating topotecan (8 mg/kg per mouse body weight) and drug pharmacokinetics monitored by blood sample analyses. Blood samples (50-100 μL) were collected at time intervals (2 min-4 h) and transferred into pre-weighed plastic vials containing heparin (5 uL). Cold methanol (100 μL) was added to each and the mixed samples stored over dry ice or at −20° C. until required. After thawing, each vial was weighed again and the difference used to estimate then original sample volume. […] Batches of 5 samples were analysed three times using an Agilent 1100 HPLC equipped with a cooled sample chamber (8-12° C.), a guarded Thermo Hypersil 30×4.6 mm, 5 μm C18 column, a Diode Array Detector (UV/vis absorbance) and an Agilent 1260 Infinity fluorescence detector. […] Detection was by absorbance (210/254/280 nm for proteins and other biologicals; 380 nm for topotecan; all using a bandwidth of 8 nm c.p. reference at 700 nm) and fluorescence (Ex 400 nm; Em 545 nm; PMT-gain 18). Injections were 5-20 μL depending on the sample concentrations and quantifications were calculated from the fluorescence peak areas after calibration (the detector response was effectively linear over the sensitive range). Topotecan could be reliably identified even at extremely low concentrations (10-20 ng/mL) by its intrinsic fluorescence and retention time (3.33±0.03 min; N=45). […]

[2] = 7T MRI T1/T2 assessment of liposome samples and controls; format: physicochemical; parameters: r1 (relaxometry value): unit not given here; settings: for T1 (s) 1param / T1 (s) 3param / T1 (s) ImageJ / T2 (s) 1param / T2 (s) ImageJ / T2 (s) 3param: 7 T
Description: A series of MRI T1/T2 assessment studies have been carried out using a 7 T pre-clinical MRI scanner, with the assistance of Dr Po-Wah So (James Black Centre, KCL). The focus here has been to derive reliable r1/r2 relaxivities per molar Gd(III) for liposome produced using the [Gd]DOTA.DSA, [Gd]DOTA.Ahx.DSA and [Gd]DOTA.Aoc.DSA. This is reliant on both accurate measurements of the T1/T2 effects and also the exact gadolinium concentration in the prepared liposome suspensions. The extrusion and gel filtration processes make this latter hard to estimate, so Inductively Coupled Plasma Mass Spectrometry (ICP-MS) quantification is being assessed. This is turn required testing of suitable acid digestion conditions since the lipid-chelates may not be analysed directly. For both MRI and ICP-MS, commercial Gadovist is being used a positive control contrast agent of known Gd content. Assessment of temperature, buffer salt and liposome size effects on T1/T2 are also underway.
FIGS. 22 and 23 show Example T1 and T2 brightness traces for controls and liposome samples.
Comparison of liposomes containing different lipids as measured at 7T Magnet*.

[3] = 19.6 °C, conc >0.3 mM, dil not given
[4] = 19.6 °C, dil 1 (liposomes 20 mg/mL; Gadovist 3.1 or 3 mM), Gadovist 3 mM
[5] = 19.6 °C, dil 1 (liposomes 20 mg/mL; Gadovist 3.1 or 3 mM), Gadovist 3.1 mM
[6] = 35.5 °C, conc >0.3 mM, dil not given

CC[C@@]1(O)C(=O)OCc2c1cc1n(c2=O)Cc2cc3c(CN(C)C)c(O)ccc3nc2-1 [free topotecan, topotecan]
clearance of topotecan from the blood pool ([1]; i.v. tail vein, matched concentration, followed 4 h): cleared from the blood pool in mins | fraction unbound ([1]; mouse, 'spiked' blood samples, previous results, read-out: loss of topotecan due to protein binding): 0.8 to 0.85

O=C([O-])CN1CCN(CC(=O)[O-])CCN([C@H](CO)[C@H](O)CO)CCN(CC(=O)[O-])CC1.[Gd+3] (racemic) [Gadovist]
T1 (s) 1param [2, 3]: 2.033 s | T1 (s) 3param [2, 3]: 2.061 s | T1 (s) ImageJ [2, 3]: 2.061 s | T2 (s) 1param [2, 3]: 0.206 s | T2 (s) ImageJ [2, 3]: 0.1 s | T1 (s) 1param [2, 4]: 0.09174 s | T1 (s) 3param [2, 4]: 0.07712 s | T1 (s) ImageJ [2, 4]: 0.092 s | T2 (s) 1param [2, 4]: 0.04691 s | T2 (s) 3param [2, 4]: 0.0488 s | T2 (s) ImageJ [2, 4]: 0.047 s | T1 (s) 1param [2, 5]: 0.072 s | T1 (s) 3param [2, 5]: 0.084 s | T1 (s) ImageJ [2, 5]: 0.084 s | T2 (s) 1param [2, 5]: 0.0431 s and 0.0426 s | T2 (s) 3param [2, 5]: 0.0422 s and 0.0419 s | T2 (s) ImageJ [2, 5]: 0.042 s | T1 (s) 1param [2, 6]: 2.602 s | T1 (s) 3param [2, 6]: 2.617 s | T1 (s) ImageJ [2, 6]: 2.606 s | T2 (s) 1param [2, 6]: 0.153 s | T2 (s) ImageJ [2, 6]: 0.1 s | T1 (s) 1param ([2]; 39.5 °C, dil 1 (Gadovist 3 mM)): 0.1297 s | T1 (s) 3param ([2]; 39.5 °C, dil 1 (Gadovist 3 mM)): 0.1138 s | T1 (s) ImageJ ([2]; 39.5 °C, dil 1 (Gadovist 3 mM)): 0.13 s | T2 (s) 1param ([2]; 39.5 °C, dil 1 (Gadovist 3 mM)): 0.05335 s | T2 (s) 3param ([2]; 39.5 °C, dil 1 (Gadovist 3 mM)): 0.05578 s | T2 (s) ImageJ ([2]; 39.5 °C, dil 1 (Gadovist 3 mM)): 0.053 s | r1 (relaxometry value) ([2]; measured at 7T Magnet): 4.8
